The source made the active and inactive calls.
What was measured:
[1] = inhibitors of firefly luciferase expression or activity, dose response, H4 neuroglioma cells, luminescence (AID 1990); format: functional, cell-based
[2] = Luminescence Cell-Based Dose Response HTS to Identify Inhibitors of 5'UTR Stem-Loop Driven Prion Protein mRNA Translation in H4 Neuroglioblastoma Cells. [Related pubchem assays: 1827 (Project Summary), 1813 (Primary HTS)]; format: functional
[3] = molecular target: T1, Heat shock factor protein 1 (Mus musculus, UniProt P38532); assay: inhibition of MG132-induced HSE-luciferase signal, confirmation, cell-based, NIH3T3, luminescence, dose retest (AID 2382); format: functional;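 note: NIH3T3 fibroblasts with HSF1-driven luciferase reporter stressed by proteasome inhibitor MG132; luminescence from HSF1-driven luciferase expression after 8 hours of MG132 stress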
T1 sequence (P38532 whole entry): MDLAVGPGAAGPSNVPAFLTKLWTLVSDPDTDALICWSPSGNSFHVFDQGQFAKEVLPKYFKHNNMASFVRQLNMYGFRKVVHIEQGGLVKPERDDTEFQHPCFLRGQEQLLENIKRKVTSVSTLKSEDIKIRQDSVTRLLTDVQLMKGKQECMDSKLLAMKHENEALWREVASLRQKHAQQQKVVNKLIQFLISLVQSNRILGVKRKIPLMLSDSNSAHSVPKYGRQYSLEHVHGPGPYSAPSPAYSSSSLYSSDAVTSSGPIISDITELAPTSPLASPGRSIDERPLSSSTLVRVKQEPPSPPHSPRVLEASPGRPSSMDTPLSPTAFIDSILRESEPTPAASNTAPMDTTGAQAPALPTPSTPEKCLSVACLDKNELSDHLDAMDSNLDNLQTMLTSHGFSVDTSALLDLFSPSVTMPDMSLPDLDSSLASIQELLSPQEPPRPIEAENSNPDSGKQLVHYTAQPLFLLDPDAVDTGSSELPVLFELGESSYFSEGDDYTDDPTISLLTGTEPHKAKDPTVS

[4] = inhibitors of SNCA 5'UTR-driven reporter translation, confirmation, H4 neuroglioma cells, luminescence (AID 1988); format: functional, cell-based
[5] = A549 cell cytotoxicity, dose response, cytotoxicity control, plate reader, cherry-pick, antagonist series (AID 743412); format: functional, cell-based
[6] = HepG2 cell cytotoxicity, dose response, cytotoxicity control, plate reader, cherry-pick, antagonist series (AID 743416); format: functional, cell-based
[7] = LGR2 antagonists, dose response, cell-based, HEK293, CRE-luciferase reporter, cherry pick, set 2 (AID 743343); format: functional;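 note: transfected cells were stimulated with diluted bursicon conditioned medium after compound addition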
[8] = MC4R antagonists, dose response, counter-screen for LGR2 antagonist project, cell-based, plate reader, cherry pick (AID 743444); format: functional;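 note: transfected HEK 293 cells stimulated with alpha-MSH peptide; potency of inhibitors of the alpha-MSH evoked signal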
[9] = HEK293 cell cytotoxicity, dose response, cytotoxicity control, plate reader, cherry-picked samples (AID 743446); format: functional, cell-based
[10] = molecular target: T2, Oxysterols receptor LXR-beta (Homo sapiens, UniProt P55055); format: functional, cell-based;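 note: agonist activity at LXR measured by a cell-based luminescence readout across a dose range, run as a counterscreen for daf-12 agonists; HEK293 cells with Gal4-LXR fusion and GAL4-driven luciferase reporter; potency for activation of Gal4-LXR reporter so compounds are agonists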
T2 sequence (P55055 whole entry): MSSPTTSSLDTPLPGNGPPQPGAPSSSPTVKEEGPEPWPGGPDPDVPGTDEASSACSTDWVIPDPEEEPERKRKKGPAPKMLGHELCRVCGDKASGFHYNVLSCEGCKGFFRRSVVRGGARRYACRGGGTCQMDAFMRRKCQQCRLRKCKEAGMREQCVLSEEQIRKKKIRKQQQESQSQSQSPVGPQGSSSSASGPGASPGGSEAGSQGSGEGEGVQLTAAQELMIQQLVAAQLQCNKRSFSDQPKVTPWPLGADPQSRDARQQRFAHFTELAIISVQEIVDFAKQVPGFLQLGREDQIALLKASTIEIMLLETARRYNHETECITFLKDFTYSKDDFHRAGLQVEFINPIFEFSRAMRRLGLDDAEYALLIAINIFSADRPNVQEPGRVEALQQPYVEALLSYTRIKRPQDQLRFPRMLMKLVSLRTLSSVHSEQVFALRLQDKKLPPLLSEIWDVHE

[11] = NIH-3T3 fibroblast cytotoxicity, dose response, cytotoxicity control, cell-based, fluorescence, Alamar Blue, secondary assay (AID 2327); format: functional;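 note: NIH-3T3 mouse fibroblasts cultured with fluconazole at 8 µg/mL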
[12] = test system: Streptococcus sp. 'group A'; assay: growth inhibition of control SK(-) GAS strain, dose response, counter-screen for streptokinase expression inhibitor project, luminescence, kanamycin, BacTiterGlo, confirmation (AID 1900); format: functional, organism-based
Streptokinase A = molecular target: T3, Streptokinase A (Streptococcus pyogenes serotype M1, UniProt P10520); assay: S. pyogenes streptokinase expression inhibitors, potency, dose response, plasminogen activation absorbance, OD405 (AID 1914); format: functional, Streptococcus pyogenes M1 GAS;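 note: secreted streptokinase activity via plasminogen activation per viability signal from cell pellet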
T3 sequence (P10520 whole entry): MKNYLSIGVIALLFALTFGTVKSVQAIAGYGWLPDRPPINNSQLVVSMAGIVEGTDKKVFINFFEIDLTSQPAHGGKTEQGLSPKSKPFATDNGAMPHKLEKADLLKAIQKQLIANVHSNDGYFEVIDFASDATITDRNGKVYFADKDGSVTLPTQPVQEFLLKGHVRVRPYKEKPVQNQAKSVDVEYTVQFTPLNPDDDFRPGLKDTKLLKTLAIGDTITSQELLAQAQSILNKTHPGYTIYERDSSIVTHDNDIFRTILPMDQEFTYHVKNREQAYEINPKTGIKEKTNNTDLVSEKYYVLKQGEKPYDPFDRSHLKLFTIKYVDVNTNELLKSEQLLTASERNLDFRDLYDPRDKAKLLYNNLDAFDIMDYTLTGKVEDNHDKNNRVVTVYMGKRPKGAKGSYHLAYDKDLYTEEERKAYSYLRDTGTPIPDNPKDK

[13] = C. albicans growth with fluconazole, confirmation, fluorescence, retest (AID 2467); format: functional, cell-based
Streptococcus = assay: Group A Streptococcus viability loss, dose response, counter-screen for streptokinase expression inhibitor project, luminescence, BacTiterGlo (AID 1915); format: functional, organism-based;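 note: potency for reduction of bacterial viability or growth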
[14] = molecular target: T4, Probable nicotinate-nucleotide adenylyltransferase (Staphylococcus aureus (strain N315), UniProt P65502); format: functional, Staphylococcus aureus subsp. aureus N315;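 for IC50 Mean: confirmatory dose-response retesting of NadD inhibitor hits first found in an ultra-high-throughput screen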
T4 sequence (P65502 whole entry): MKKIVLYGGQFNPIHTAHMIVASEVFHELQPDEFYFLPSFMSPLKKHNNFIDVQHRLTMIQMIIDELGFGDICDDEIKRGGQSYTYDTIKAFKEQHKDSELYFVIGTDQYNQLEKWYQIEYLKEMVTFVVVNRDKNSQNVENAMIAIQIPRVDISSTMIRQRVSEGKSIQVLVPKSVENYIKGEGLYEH

[15] = molecular target: T4, Probable nicotinate-nucleotide adenylyltransferase; format: functional, Staphylococcus aureus subsp. aureus N315; conditions: read-out: IC50_Mean
[16] = molecular target: Disintegrin and metalloproteinase domain-containing protein 17 (Homo sapiens, UniProt P78536); assay: ADAM17 protease inhibitors, dose response, counter-screen for ADAM10 exosite inhibitor project, biochemical, quenched FRET substrate (AID 743253)
Chain of Disintegrin and metalloproteinase domain-containing protein 17 (P78536 whole entry, the tested form may be a part): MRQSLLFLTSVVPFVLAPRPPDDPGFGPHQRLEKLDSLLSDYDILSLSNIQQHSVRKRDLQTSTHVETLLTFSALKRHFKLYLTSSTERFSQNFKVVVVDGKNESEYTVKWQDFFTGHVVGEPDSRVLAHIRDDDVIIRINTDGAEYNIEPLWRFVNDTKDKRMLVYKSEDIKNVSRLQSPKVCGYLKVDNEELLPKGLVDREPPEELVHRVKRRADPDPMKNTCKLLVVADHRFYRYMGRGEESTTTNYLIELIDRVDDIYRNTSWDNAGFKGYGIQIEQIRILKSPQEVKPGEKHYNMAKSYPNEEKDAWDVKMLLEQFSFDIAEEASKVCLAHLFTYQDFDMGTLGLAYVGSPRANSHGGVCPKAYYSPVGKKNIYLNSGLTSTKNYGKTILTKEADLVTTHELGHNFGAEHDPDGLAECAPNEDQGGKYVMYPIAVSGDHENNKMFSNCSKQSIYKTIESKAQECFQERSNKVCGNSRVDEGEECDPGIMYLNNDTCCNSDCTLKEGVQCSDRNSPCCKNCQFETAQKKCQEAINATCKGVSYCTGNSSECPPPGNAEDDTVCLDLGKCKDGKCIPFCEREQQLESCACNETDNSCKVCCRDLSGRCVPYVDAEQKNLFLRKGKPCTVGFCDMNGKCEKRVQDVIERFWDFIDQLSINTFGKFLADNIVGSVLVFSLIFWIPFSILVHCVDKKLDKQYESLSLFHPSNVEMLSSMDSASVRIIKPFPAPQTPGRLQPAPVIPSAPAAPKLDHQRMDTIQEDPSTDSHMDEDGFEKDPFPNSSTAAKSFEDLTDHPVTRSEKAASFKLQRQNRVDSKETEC

[17] = inhibitors of intracellular T. cruzi replication, confirmation, NIH3T3 host cells, beta-gal luminescence (AID 2044); format: functional, cell-based;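 note: intracellular parasites grown in NIH/3T3 mouse fibroblasts as host cells; luminescent beta-galactosidase reporter signal from transgenic T. cruzi replicating inside host cells; inhibitors lower the luminescence signal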
[18] = molecular target: Induced myeloid leukemia cell differentiation protein Mcl-1 (Homo sapiens, UniProt Q07820); format: functional
Chain of Induced myeloid leukemia cell differentiation protein Mcl-1 (Q07820 whole entry): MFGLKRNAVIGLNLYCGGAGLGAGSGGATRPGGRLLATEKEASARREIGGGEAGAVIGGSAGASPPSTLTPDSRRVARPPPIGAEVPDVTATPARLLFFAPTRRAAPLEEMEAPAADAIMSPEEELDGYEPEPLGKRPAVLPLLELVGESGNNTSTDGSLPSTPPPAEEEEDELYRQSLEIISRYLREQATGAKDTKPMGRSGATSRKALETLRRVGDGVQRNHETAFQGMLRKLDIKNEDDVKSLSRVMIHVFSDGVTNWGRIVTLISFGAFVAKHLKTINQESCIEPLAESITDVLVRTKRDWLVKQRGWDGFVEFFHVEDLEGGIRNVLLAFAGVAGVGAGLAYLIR

[19] = molecular target: T5, Replicative DNA helicase DnaB (Mycobacterium tuberculosis, UniProt P9WMR3); assay: DnaB intein splicing inhibitors, dose response, biochemical, cell-free fluorescence (AID 449749); format: functional
T5 sequence (P9WMR3 whole entry): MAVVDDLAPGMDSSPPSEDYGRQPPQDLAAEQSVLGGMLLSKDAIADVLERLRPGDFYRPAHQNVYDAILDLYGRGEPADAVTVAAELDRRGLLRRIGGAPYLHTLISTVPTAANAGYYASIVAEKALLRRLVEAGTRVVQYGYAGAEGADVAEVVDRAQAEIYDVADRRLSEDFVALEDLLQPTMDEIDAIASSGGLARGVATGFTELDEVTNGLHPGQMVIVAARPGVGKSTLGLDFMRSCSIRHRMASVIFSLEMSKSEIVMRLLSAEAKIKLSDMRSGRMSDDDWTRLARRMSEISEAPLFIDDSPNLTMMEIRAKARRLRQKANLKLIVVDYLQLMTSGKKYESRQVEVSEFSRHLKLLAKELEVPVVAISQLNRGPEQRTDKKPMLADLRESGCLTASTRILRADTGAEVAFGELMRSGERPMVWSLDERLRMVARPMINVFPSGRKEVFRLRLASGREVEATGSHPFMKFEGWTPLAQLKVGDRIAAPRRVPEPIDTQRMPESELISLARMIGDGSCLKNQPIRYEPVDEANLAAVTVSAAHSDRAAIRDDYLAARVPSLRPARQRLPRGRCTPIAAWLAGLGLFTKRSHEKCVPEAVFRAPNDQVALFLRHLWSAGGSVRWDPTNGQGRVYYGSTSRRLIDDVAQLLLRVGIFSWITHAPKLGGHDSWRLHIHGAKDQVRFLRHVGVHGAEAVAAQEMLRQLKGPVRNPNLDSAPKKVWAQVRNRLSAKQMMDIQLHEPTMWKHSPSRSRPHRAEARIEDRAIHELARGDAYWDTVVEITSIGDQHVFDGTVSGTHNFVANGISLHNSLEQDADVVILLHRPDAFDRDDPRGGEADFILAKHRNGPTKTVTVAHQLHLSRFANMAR

Protein RecA = molecular target: T6, Protein RecA (Mycobacterium tuberculosis, UniProt P9WHJ3); assay: Fluorescence Cell-Free Homogeneous Dose Retest to Identify Inhibitors of RecA-Intein Splicing Activity. [Related pubchem assays (depositor defined):AID2097, AID2223, AID489010, AID492950]; format: functional
T6 sequence (P9WHJ3 whole entry): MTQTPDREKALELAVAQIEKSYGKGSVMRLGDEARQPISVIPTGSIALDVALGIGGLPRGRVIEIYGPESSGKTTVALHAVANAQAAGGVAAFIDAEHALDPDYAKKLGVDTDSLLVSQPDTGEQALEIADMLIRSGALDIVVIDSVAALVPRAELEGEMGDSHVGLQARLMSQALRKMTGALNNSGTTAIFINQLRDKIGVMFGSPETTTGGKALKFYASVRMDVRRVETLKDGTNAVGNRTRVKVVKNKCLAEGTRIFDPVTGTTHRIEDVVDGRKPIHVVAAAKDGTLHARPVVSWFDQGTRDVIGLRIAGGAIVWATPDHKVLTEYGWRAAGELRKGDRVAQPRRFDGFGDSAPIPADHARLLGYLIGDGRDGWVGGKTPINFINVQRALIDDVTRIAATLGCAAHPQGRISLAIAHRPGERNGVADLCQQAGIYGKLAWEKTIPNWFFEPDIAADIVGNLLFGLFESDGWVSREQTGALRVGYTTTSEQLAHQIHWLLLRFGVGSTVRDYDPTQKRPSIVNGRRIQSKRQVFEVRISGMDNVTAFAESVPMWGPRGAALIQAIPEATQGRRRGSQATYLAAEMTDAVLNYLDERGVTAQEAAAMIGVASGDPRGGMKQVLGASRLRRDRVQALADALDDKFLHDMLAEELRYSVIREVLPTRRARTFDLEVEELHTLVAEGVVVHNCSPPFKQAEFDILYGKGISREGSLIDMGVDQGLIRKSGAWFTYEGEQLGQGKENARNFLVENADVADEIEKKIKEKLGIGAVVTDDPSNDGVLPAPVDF

Mu-type opioid receptor = Mu-type opioid receptor (Homo sapiens, UniProt P35372); format: functional, cell-based;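 note: U2OS cells with beta-arrestin recruitment to OPRM1 by beta-gal complementation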
Chain of Mu-type opioid receptor (P35372 whole entry): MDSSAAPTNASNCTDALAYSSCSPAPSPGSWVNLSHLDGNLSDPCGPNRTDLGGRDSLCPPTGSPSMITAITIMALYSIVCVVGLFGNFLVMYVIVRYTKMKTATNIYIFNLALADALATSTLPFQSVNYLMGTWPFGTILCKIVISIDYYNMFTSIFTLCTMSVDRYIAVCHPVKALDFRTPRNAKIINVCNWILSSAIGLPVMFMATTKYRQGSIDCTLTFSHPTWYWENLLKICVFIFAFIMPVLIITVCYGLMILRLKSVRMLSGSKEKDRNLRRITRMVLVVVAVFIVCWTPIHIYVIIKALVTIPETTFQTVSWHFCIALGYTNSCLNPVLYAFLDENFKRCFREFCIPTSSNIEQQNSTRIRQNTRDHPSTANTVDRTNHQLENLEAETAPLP

[20] = molecular target: 5-hydroxytryptamine receptor 2A (Mus musculus, UniProt P35363); format: functional, cell-based;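 note: CHO-K1 cells with tagged receptor and beta-arrestin; agonist potency measured as compound-induced activation of the receptor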
Chain of 5-hydroxytryptamine receptor 2A (P35363 whole entry): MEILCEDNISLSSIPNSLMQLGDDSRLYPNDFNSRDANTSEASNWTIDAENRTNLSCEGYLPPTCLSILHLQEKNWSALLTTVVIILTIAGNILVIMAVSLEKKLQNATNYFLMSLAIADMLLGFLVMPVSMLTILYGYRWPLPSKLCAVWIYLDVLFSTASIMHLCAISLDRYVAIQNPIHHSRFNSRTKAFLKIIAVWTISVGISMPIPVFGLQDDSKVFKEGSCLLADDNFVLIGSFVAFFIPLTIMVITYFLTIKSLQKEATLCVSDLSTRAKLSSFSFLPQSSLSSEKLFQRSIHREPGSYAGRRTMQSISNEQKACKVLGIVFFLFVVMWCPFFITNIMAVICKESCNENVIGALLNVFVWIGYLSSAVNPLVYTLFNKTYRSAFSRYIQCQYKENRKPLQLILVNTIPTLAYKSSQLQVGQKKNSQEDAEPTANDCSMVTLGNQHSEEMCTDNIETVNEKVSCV

Paired box protein Pax-8 = Paired box protein Pax-8 (Homo sapiens, UniProt Q06710); assay: inhibitors of PAX8-driven TPO luciferase reporter, dose response, RMG-I cells, cherry-pick (AID 687027); format: functional, cell-based;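 note: luciferase reporter driven by Pax8 target thyroperoxidase promoter measured by SteadyGlo luminescence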
Chain of Paired box protein Pax-8 (Q06710 whole entry): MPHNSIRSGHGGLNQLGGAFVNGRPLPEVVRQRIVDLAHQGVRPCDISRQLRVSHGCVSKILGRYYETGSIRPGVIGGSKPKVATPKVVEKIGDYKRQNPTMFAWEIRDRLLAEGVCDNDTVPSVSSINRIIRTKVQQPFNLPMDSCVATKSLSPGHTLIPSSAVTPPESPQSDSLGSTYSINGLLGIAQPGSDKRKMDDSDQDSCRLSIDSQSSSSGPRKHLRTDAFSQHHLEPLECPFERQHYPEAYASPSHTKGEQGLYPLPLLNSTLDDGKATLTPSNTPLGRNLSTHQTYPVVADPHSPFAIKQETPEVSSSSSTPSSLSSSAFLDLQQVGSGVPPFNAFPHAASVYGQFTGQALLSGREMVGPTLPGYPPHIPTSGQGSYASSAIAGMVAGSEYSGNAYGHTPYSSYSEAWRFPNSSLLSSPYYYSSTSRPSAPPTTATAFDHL

[21] = non-specific cell cytotoxicity, dose response, cytotoxicity control for PAX8 inhibitor project, plate reader, dry powder samples (AID 743021); format: functional, cell-based
[22] = molecular target: Endoplasmic reticulum aminopeptidase 1 (Homo sapiens, UniProt Q9NZ08); assay: ERAP1 aminopeptidase inhibitors, dose response, biochemical, cherry-pick, set 2, plate reader (AID 743314)
Chain of Endoplasmic reticulum aminopeptidase 1 (Q9NZ08 whole entry): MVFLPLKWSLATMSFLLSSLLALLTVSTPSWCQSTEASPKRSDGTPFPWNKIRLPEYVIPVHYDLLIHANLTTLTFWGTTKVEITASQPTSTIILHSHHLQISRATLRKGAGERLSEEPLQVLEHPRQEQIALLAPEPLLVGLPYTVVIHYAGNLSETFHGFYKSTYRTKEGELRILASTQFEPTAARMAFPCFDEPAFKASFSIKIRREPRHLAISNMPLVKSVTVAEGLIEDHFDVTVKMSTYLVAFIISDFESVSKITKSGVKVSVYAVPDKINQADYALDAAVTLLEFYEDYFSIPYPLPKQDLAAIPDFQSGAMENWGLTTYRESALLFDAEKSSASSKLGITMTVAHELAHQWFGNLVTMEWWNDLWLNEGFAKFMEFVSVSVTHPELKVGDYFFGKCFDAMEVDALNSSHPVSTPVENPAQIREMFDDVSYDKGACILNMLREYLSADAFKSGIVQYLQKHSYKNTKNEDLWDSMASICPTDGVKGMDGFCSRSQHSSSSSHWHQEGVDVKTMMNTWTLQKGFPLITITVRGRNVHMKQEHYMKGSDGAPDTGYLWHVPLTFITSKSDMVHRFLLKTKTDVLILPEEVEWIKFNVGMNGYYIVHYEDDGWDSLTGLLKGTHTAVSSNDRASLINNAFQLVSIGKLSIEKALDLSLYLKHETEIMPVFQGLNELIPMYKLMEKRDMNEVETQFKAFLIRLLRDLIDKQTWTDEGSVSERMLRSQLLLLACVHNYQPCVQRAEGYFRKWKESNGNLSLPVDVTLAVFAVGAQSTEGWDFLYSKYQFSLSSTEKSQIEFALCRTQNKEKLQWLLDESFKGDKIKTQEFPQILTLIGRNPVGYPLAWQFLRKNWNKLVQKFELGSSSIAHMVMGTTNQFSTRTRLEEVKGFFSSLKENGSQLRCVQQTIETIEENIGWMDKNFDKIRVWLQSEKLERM

fMet-Leu-Phe receptor = fMet-Leu-Phe receptor (Homo sapiens, UniProt P21462); assay: FPR ligands, dose response (AID 519); format: functional
Chain of fMet-Leu-Phe receptor (P21462 whole entry): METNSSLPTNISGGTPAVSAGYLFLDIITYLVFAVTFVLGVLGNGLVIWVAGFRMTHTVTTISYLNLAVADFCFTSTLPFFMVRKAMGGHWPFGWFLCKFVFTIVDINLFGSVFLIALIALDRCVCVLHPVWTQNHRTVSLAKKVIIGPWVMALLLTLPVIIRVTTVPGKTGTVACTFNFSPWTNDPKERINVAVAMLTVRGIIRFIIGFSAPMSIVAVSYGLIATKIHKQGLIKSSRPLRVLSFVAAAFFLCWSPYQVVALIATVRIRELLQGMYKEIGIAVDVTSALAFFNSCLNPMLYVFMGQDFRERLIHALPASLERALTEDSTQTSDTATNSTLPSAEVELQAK

With `c1c2c(cc3sc(N4CCCCC4)nc13)OCCO2` the EC50 [1] was > 120 µM (not active), the EC50 [2] was 8.9 µM (active) and the EC50 [3] was 11.5 µM (active). The EC50 [4] was 8.83 µM (active), the AC50 [5] was 32.9 µM (active) and the AC50 [6] was 30.7 µM (active). For the same compound, the AC50 [7] was 1.58 µM (active), the AC50 [8] was 1.97 µM (active) and the AC50 [9] was 13.6 µM (active).

For `Cc1cccc(/C=C\c2nc(O)c3ccccc3n2)c1`, the EC50 [10] was > 67.5 µM (inactive).

In the case of `O=C(NNC(=O)c1cc(-c2ccc(Cl)cc2)nc2ccccc12)c1csc(N2CCOCC2)n1`, the EC50 [11] is reported as > 150 µM (inactive), the EC50 [12] is reported as 20 µM (active) and the EC50 (Streptokinase A) is reported as > 150 µM (not active). The EC50 [13] was 0.775 µM (active), the EC50 (Streptococcus) was 76.8 µM (active) and the IC50 [14] was 20.8 µM (active). The IC50 [15] was 58 µM (active) and the IC50 [16] was > 69.5 µM (inactive).

In the case of `Cc1cc(N/N=C/c2ccc(O)c(C)c2O)nc(-c2ccccc2O)n1`, the EC50 [1] is reported as > 60 µM (not active), the EC50 [12] is reported as 4.48 µM (active) and the EC50 [2] is reported as 13.1 µM (active). For the same compound, the EC50 [3] was 3.71 µM (active), the EC50 [4] was > 120 µM (not active) and the EC50 (Streptokinase A) was > 150 µM (not active). The EC50 [17] was 1.1 µM (active), the IC50 [18] was 3.3 µM (active) and the EC50 (Streptococcus) was 8.71 µM (active). The AC50 [19] was > 380 µM (inactive), the EC50 (Protein RecA) was > 380 µM (inconclusive) and the EC50 (Mu-type opioid receptor) was 92.5 µM (inactive). For the same compound, the EC50 [20] was 7.6 µM (active), the AC50 (Paired box protein Pax-8) was 4.54 µM (active) and the AC50 [21] was 14.1 µM (active).

For `COCC(=O)N1[C@@H]2Cn3c(ccc(/C=C/c4ccccc4)c3=O)[C@H]1[C@@H](C(=O)N1CCOCC1)[C@@H]2CO`, the AC50 [22] was 6.74 µM (active).

In the case of `CC1(C)S[C@@H]2[C@H](NC(=O)C(C(=O)O)c3ccccc3)C(=O)N2[C@H]1C(=O)O` (stereo not given in full) [CARBENICILLIN DISODIUM], the Ki (fMet-Leu-Phe receptor) is reported as > 66.7 µM (inactive).

Source: ChEMBL document CHEMBL1201862, “PubChem BioAssay data set” (2004)
